Experimental data taken from ChEMBL document CHEMBL1201862, “PubChem BioAssay data set” (2004).
Activity calls are given as the source filed them.

Experiments:
Protein RecA = molecular target: T1, Protein RecA (Mycobacterium tuberculosis, UniProt P9WHJ3); assay: Fluorescence Cell-Free Homogeneous Dose Retest to Identify Inhibitors of RecA-Intein Splicing Activity. [Related pubchem assays (depositor defined):AID2097, AID2223, AID489010, AID492950]; format: functional
T1 sequence (P9WHJ3 whole entry): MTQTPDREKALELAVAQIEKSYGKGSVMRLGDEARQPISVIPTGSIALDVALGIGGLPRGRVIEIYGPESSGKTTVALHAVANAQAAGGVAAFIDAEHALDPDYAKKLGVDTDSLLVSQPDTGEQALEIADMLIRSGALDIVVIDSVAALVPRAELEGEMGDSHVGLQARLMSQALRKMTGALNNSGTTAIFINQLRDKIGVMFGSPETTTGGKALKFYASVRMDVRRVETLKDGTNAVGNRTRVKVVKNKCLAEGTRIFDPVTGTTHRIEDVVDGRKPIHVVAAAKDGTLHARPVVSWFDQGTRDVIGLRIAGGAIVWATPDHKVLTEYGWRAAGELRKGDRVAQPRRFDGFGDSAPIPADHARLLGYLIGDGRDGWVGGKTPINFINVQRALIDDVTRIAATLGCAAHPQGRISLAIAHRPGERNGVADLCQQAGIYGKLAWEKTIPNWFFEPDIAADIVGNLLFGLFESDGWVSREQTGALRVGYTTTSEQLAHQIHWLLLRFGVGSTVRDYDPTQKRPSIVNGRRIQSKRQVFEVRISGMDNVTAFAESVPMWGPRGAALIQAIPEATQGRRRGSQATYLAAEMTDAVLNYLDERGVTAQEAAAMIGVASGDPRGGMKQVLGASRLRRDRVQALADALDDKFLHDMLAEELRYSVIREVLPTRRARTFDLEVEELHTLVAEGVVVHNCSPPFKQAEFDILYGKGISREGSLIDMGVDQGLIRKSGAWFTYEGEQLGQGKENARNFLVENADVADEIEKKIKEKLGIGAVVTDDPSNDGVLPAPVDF

[1] = molecular target: T2, Replicative DNA helicase DnaB (Mycobacterium tuberculosis, UniProt P9WMR3); assay: DnaB intein splicing inhibitors, dose response, biochemical, cell-free fluorescence (AID 449749); format: functional
T2 sequence (P9WMR3 whole entry): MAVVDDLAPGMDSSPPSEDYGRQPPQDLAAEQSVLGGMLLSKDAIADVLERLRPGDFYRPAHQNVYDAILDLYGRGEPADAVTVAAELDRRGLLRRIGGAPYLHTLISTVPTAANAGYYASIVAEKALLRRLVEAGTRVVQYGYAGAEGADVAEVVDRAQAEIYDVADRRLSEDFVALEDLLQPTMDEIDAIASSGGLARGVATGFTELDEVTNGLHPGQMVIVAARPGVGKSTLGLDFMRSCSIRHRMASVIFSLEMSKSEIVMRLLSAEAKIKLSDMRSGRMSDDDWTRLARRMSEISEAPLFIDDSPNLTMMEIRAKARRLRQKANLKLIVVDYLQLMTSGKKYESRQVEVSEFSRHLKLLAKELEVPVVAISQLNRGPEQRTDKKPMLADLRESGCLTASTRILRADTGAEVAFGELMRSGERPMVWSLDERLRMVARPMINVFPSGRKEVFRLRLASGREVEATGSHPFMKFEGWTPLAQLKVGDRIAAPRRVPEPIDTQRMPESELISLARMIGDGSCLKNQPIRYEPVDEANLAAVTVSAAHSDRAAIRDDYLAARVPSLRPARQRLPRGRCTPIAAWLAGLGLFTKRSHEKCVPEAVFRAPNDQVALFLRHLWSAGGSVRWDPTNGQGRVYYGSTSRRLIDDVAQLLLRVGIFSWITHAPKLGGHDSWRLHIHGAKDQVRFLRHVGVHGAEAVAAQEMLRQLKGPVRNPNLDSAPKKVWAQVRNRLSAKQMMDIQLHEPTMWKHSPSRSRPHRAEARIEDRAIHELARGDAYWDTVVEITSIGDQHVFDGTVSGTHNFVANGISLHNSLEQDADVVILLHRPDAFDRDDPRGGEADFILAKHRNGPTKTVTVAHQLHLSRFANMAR

Cytochrome P450 2C19 = Cytochrome P450 2C19 (Homo sapiens, UniProt P33261); assay: Cytochrome panel assay with activity outcomes. Panel member name: p450-cyp2c19 Compounds with AC50 equal or less than 10 uM are considered active; format: functional
Cytochrome P450 3A4 = Cytochrome P450 3A4 (Homo sapiens, UniProt P08684);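 further: CYP3A4 tested as one member of a cytochrome P450 panel screen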
Cytochrome P450 1A2 = molecular target: T3, Cytochrome P450 1A2 (Homo sapiens, UniProt P05177);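 further: PubChem cytochrome P450 panel assay, CYP1A2 panel member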
T3 sequence (P05177 whole entry): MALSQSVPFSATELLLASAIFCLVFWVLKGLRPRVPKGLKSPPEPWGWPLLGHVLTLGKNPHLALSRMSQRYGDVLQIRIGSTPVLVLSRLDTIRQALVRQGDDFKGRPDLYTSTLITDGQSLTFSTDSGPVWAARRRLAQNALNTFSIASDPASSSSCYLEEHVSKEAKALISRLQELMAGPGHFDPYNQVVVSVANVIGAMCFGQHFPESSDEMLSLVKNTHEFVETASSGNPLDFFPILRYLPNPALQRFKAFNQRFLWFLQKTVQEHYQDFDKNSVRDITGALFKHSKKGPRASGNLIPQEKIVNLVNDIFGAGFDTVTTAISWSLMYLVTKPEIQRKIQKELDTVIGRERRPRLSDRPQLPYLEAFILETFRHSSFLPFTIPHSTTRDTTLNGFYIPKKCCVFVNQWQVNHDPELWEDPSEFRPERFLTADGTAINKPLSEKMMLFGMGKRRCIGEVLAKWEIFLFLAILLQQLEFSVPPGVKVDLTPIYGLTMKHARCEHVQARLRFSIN

Sequence of Cytochrome P450 2C19 (P33261 whole entry): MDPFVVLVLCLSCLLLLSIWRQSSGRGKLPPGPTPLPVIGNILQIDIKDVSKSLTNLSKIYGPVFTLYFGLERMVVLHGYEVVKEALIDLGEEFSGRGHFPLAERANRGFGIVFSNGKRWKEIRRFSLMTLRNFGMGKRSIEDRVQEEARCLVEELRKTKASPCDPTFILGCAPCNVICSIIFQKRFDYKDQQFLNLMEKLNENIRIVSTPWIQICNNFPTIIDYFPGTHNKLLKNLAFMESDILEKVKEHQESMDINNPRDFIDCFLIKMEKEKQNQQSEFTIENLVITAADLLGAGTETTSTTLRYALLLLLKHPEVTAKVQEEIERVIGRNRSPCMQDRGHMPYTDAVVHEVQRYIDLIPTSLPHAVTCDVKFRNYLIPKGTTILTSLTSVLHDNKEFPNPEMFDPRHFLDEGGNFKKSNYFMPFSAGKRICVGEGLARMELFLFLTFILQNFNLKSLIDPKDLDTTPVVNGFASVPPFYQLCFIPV
Sequence of Cytochrome P450 3A4 (P08684 whole entry): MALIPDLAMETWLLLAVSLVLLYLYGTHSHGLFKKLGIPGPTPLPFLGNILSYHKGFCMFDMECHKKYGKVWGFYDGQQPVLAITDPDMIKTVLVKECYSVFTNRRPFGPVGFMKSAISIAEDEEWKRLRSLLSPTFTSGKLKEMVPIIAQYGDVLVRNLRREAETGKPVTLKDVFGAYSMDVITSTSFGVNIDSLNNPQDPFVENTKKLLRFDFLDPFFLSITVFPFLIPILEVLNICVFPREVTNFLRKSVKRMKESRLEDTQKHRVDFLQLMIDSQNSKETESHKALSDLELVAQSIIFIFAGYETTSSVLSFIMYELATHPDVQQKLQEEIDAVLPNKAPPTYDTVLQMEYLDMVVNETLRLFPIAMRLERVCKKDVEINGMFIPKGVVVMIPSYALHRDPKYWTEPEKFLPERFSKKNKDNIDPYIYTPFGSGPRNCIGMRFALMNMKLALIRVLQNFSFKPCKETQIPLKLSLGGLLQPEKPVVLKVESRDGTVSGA

SMILES	EC50 (Protein RecA)	AC50 [1]	AC50 (Cytochrome P450 2C19; read-out: AC50)	further results
Cc1nn(-c2ccccc2)c2c1C(c1ccc(F)cc1F)C(C#N)=C(N)O2 (configuration not stated)	3.5 µM (active)	7.25 µM (active)		
CC1(C)[C@@H]2CC[C@]1(C)[C@@H](OC(=O)/C=C\c1ccccc1)C2			0.00398 µM (inconclusive)	
COc1ccc(N(C(=O)c2ccco2)S(=O)(=O)c2cccs2)cc1	32.6 µM (active)	38.1 µM (active)		
C[C@@H](C(=O)O)c1ccc(C[C@@H]2CCCC2=O)cc1				AC50 (Cytochrome P450 2C19): inconclusive
CCOc1cc(NC(=O)c2ccccc2[N+](=O)[O-])c(OCC)cc1NC(=O)CC(C)C			0.0112 µM (inconclusive)	
Cc1ccc(C(=O)NC(C#N)=C(Cl)Cl)cc1	19.5 µM (active)	27.1 µM (active)		
CCOc1ccc(CN(C)C(=O)CCl)cc1	4.09 µM (active)	> 380 µM (inactive)		
Cn1c(CN2CCOCC2)nnc1SCc1ccccc1			20 µM (inconclusive)	
CCC(CC)C(=O)Nc1c2c(nn1-c1ccc(OC)cc1)CS(=O)(=O)C2			35.5 µM (inconclusive)	AC50 (Cytochrome P450 3A4): 25.1 µM (inconclusive)
Cn1cc(-c2nc3cnc(Oc4cccc(Cl)c4)nc3n(C3CC3)c2=O)c2ccccc21				AC50 (Cytochrome P450 1A2): 12.6 µM (inconclusive)
C=CC[C@@H](C(=O)O)c1ccccc1				AC50 (Cytochrome P450 2C19): inconclusive
N#Cc1c(SCC(N)=O)nsc1SCc1ccccc1Cl				AC50 (Cytochrome P450 3A4): 10 µM (inconclusive); AC50 (Cytochrome P450 1A2): 4.47 µM (inconclusive)
O=C(Cc1cc(O)n[nH]1)N/N=C/c1ccccc1[N+](=O)[O-]	1.73 µM (active)	4.19 µM (active)		
CCN(CC)C(=O)C1=C(C)N=C(S)NC1c1cn(-c2ccccc2)nc1-c1ccc(Cl)cc1 (configuration not stated)			17.8 µM (inconclusive)	AC50 (Cytochrome P450 1A2): 28.2 µM (inconclusive)
CCCCNC(=O)CCn1c(=S)[nH]c2cc3c(cc2c1=O)OCO3			3.55 µM (inconclusive)	
N#CC1(C#N)CC(C=O)=C(N)C1(C#N)CC(=O)C12CC3CC(CC(C3)C1)C2 (configuration not stated)	10 µM (active)	> 380 µM (inactive)		
Cc1ccsc1/C=N/NC(=O)Cc1cc(O)[nH]n1	1.28 µM (active)	1.68 µM (active)		
